Measurements taken from US20250017840A1, “NOVEL SENOTHERAPY PEPTIDE AND COMPOSITION CONTAINING THE SAME” (AMOREPACIFIC CORPORATION, priority 2023, published 2025).

Experiments:
[1] = tested on: skin senescent cells (aged skin fibroblasts, DI model and RS model); assay: Survival rate of aged cells (CCK-8), selective apoptosis efficacy on skin senescent cells; assay type: cell-based, human; conditions: 100 μg/ml for 3 days, FIG. 2; for apoptosis effect of senescent cells (survival rate of aged cells, CCK-8): DI model or RS model skin fibroblasts; for selective apoptosis effect on the senescent cells versus normal cells: senescent versus normal skin fibroblasts
Description: Specifically, in the case of the DI model, the skin fibroblasts (Normal human dermal fibroblasts, Lonza, Switzerland) were cultured in DMEM Medium (Lonza, Switzerland) containing 10% FBS, and then were inoculated into a chamber slide (Thermo Fisher Scientific, USA) at 1×10^3 cells per well and cultured in a CO2 incubator of 5% concentration at 37° C. for 24 hours. The cultured wells were treated with each of Doxorubicin-hydrochloride (Sigma) and IGF-1 (Sigma) in a concentration of 100 ng/ml for 4 days to induce early senescence of the skin fibroblasts. As a control group, the normal skin fibroblasts that were not treated with Dox or IGF-1 were prepared. Thereafter, for the immunofluorescence stain, the cell culture solution was washed with PBS three times and fixed in 4% paraformaldehyde for 30 minutes. Then, the skin fibroblast sample was washed with PBS containing 0.2% Triton X-100 three times, added to PBS containing 3% BSA, and left for 1 hour. Next, the sample was incubated in 1% BSA containing rabbit polyclonal anti-FOXO4 antibody (SAB4501887, Sigma) (1:500 dilution) at 4° C. overnight to allow the antibody to bind to an antigen contained in the skin fibroblasts. Thereafter, the Sample was washed with the PBS three times, incubated with Alexa Fluor®488-conjugated goat polyclonal secondary antibody (A32731, ThermoFisher Scientific) (1:1000 dilution) against rabbit IgG-H&L at a room temperature for 1 hour, and then washed with the PBS three times. Next, a drop of the mounting solution containing DAPI was placed on a microscope slide glass and fixed by raising the coverslip itself. The fixed sample was observed by a confocal microscope (LSM 980, Zeiss, Germany).
In the case of the RS model, the aged skin fibroblasts were prepared by continuously culturing skin fibroblasts (Normal human dermal fibroblasts, Lonza, Switzerland) in DMEM Medium (Lonza, Switzerland) containing 10% FBS over 30 to 40 times. For the immunofluorescence staining test, each of the aged skin fibroblasts (p41) and the normal skin fibroblasts was inoculated into a chamber slide (Thermo Fisher Scientific, USA) at 1×10^3 cells per well, and cultured in a CO2 incubator of 5% concentration at 37° C. for 48 hours. Thereafter, the cell culture solution was washed with PBS three times and fixed in 4% paraformaldehyde for 30 minutes. Next, the skin fibroblast sample was washed with PBS containing 0.2% Triton X-100 three times, added to PBS containing 3% BSA, and left for 1 hour. Then, the sample was incubated in 1% BSA containing a rabbit polyclonal anti-FOXO4 antibody (SAB4501887, Sigma) (1:500 dilution) at 4° C. overnight to allow the antibody to bind to an antigen contained in the skin fibroblasts. Thereafter, the sample was washed with the PBS three times, incubated with Alexa Fluor®488-conjugated goat polyclonal secondary antibody (A32731, ThermoFisher Scientific) (1:1000 dilution) against rabbit IgG-H&L at a room temperature for 1 hour, and then was washed with the PBS three times. […]
As in Test Example 1, after the skin fibroblasts (DI model) that induced senescence by treating with each of Doxorubicin and IGF-1 in a concentration of 100 ng/ml for 4 days or the fibroblasts (RS model) aged by culturing the skin fibroblasts up to passage 40 were treated with a peptide (21a-D) consisting of the amino acid sequence of […] […] ([…]) in each concentration of 100 μg/ml for 3 days, a survival rate of the aged cells was measured. […]

[2] = tested on: skin senescent cells (DI model and RS model); assay: SA-β-gal stain and microscopic observation of apoptosis efficacy on skin senescent cells; assay type: cell-based, human; conditions: treated as in Test Example 2, FIGS. 3A and 3B
Description: In the same manner as that of Test Example 2, after the DI model and the RS model were treated with a peptide (21a-D) consisting of the amino acid sequence of […] (SEQ ID NO: 1) and a peptide (FOXO4-DRI) consisting of the amino acid sequence of […] (SEQ ID NO: 4), SA-3-gal (senescent associated-β-galactosidase) stain and microscopic observation were performed to visually confirm an apoptosis efficacy of the skin senescent cells. The SA-3-Gal stain was performed according to the protocol using the Senescence Cell Histochemical Staining Kit (CS0030, Sigma, USA), and after 24 hours of the staining, it was confirmed whether or not the cells were stained through an optical microscope.

[3] = biological target: T1, p53 and FOXO4 (Homo sapiens, UniProt P04637); assay: Immunofluorescence observation of cytoplasmic movement of p53; assay type: cell-based; conditions: DI-treated aged skin fibroblasts; 100 ug/ml for 3 days; FIG. 4
T1 construct: endogenous in cells; host or cells: skin fibroblasts made senescent with doxorubicin and IGF-1 (DI model)
T1 sequence (P04637 whole entry): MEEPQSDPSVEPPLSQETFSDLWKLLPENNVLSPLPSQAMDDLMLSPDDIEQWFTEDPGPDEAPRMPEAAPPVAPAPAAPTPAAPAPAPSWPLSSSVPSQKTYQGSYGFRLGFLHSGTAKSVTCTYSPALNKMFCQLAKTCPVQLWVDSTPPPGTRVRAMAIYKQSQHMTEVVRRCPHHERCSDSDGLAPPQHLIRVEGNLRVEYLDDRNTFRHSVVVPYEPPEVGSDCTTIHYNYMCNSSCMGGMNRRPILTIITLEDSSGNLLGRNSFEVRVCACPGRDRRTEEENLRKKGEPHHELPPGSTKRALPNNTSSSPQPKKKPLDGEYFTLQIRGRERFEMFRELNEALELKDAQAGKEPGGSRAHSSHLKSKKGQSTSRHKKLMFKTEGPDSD
Description: It was confirmed through the immunofluorescence (IF) stain experiment whether or not this phenomenon was observed when the skin senescent cells were treated with the peptide having the amino acid sequence of SEQ ID NO: 1 according to an embodiment of the present invention. The aged skin fibroblasts treated with DI (Doxorubicin/IGF-1) were treated with the peptide 21a-D in the same manner as in Test Example 2, and then the expression and cytoplasmic movement of FOXO4 and p53 were observed.
Specifically, the skin fibroblasts were inoculated into a chamber slide (Thermo Fisher Scientific, USA) at 1×10^3 cells per well and cultured in a 5% CO2 incubator at 37° C. for 24 hours. The cultured wells were treated with each of Dox and IGF-1 in a concentration of 100 ng/ml for 4 days to induce early senescence of the skin fibroblasts, and then treated with the peptide 21a-D in a concentration of 100 ug/ml for 3 days followed by being further cultured. For immunofluorescence stain, the cell culture solution was washed with PBS three times and fixed by treating it with ice-cold methanol at −20° C. for 10 minutes. Next, it was added into PBS containing 3% BSA and left for 1 hour. […]

[4] = tested on: MMP-1; assay: MMP-1 expression in senescent cells by qPCR; assay type: cell-based, human; conditions: DI model senescent cells, treated as in Test Example 2; FIG. 5
Description: After treating the DI model with the peptide (21a-D) consisting of the amino acid sequence of […] (SEQ ID NO: 1) and the peptide (FOXO4-DRI) consisting of the amino acid sequence of […] (SEQ ID NO: 4) in the same manner as in Test Example 2 above, an ability to suppress the expression of MMP-1 in the senescent cells was identified. After recovering the cultured cells, total RNA was isolated using a TRIzol™ solution (TRIzol™ Reagent, Invitrogen) extraction method. 1 μg of the isolated RNA was synthesized into cDNA using reverse transcriptase (RevertAid Firist strand cDNA synthesis kit, Thermofisher), and then diluted to a final concentration of 200 μl. In order to perform PCR, a mixing kit was prepared by mixing […] (Hs00899658_m1, ThermoFisher Scientific), 10 μl of Taqman universal master mix II with UNG (Applied Biosystems), and 5 μl of distilled water to allow the mixture to be diluted to 16 μl. 16 μl of the mixing kit and 4 μl of cDNA were mixed to perform qPCR under the following reaction conditions. The reaction conditions were 95° C., initialization reaction for 10 minutes, denaturation at 95° C. for 15 seconds, annealing at 60° C. for 60 seconds, and extension reaction at 50° C. for 20 seconds, which were set to be performed in a PCR device (7500 Fast Real-time PCR system, Applied Biosystems) with repetition of 40 times.

Row | Sequence | apoptosis effect of senescent cells (survival rate of aged cells, CCK-8) [1] | number of senescent cells (SA-β-gal stain, microscopic observation) [2] | binding of p53 and FOXO4 in the nucleus [3] | cytoplasmic movement of p53 (immunofluorescence) [3] | expression of MMP-1 (qPCR, corrected for GAPDH) [4] | selective apoptosis effect on the senescent cells versus normal cells [1]
1 | AYSQNGWANRRPRRRQRRKKRG [22a-D] | minimal |  |  |  |  | 
2 | AYSQNGWANRRRRGGRRRRRR [21a-D] |  | significantly reduced | suppressed the binding of p53 and FOXO4 in the nucleus | p53 moved to a cytoplasm in the nucleus | suppressed | selective apoptosis of only skin senescent cells was induced
3 | LTLRKEPASEIAQSILEAYSQNGWANRRSGGKRPPPRRRQRRKKRG [FOXO4-DRI, reference compound] | apoptosis effect had on the senescent cells as well as even on the normal cells |  |  |  |  | weak
4 | QRKKRRQRRRPRRNAWGNQSYA [22a-L] | minimal |  |  |  |  | 
